How the values were obtained:
[1] = Ibuprofen blood plasma concentration after infrared triggering of subcutaneous strand in rat; format: in vivo; conditions: sc; for concentration at 1 day: first time; for concentration at 2 day: second time (next day)
Description: An object consisting of a compounded strand with a diameter of 2.0 mm and a length of 2.0 cm. […] Addition of ibuprofen led to a lowering of the Tg to about −1° C.
The strand was placed subcutaneously in a rat. After 1 day, the strand was irradiated perpendicularly to the length axis with the same laser diode module as in Example 1a, for 15 minutes, the laser power set at 750 mW and the distance between fiber exit and the skin of the rat being 20 mm. The next day this procedure was repeated again.
Blood samples were taken before, during and after triggering on both days. As a consequence of irradiation, the concentration of ibuprofen in the blood plasma increased the first time from below 5 ng/ml (no detection peak of LC-MS/MS was found) to 25 ng/ml and the second time from below 5 ng/ml (no peak was found) to 19 ng/ml.

[2] = Infrared-triggered release of ibuprofen from P(BMA-MMA) disc in physiological buffer; format: physicochemical; conditions: physiological buffer at 30° C.; for speed of release of ibuprofen from the disc: P(BMA-MMA) disc, 290 ppm Lumogen IR 788, 5 wt % ibuprofen
Description: An object consisting of a pressed circular disc with a diameter of 2.5 cm and thickness of 2 mm was placed in a holder in a vessel completely containing 90 mL physiological buffer at 30° C. […] Addition of ibuprofen led to a lowering of the Tg to about 35° C. The disc was irradiated perpendicularly to the surface with the same laser diode module as in Example 1a, the laser power being 750 mW and the distance between fiber exit and disc 50 mm. The water layer between sample and disc was approximately 20 mm. A glass lid was placed on the vessel to prevent water evaporation. The vessel was completely filled with water, thus avoiding reflection and refraction effects at an additional air/water interface. The near-infrared irradiation only encountered an air to glass and a glass to water transition. Irradiation was applied in an alternating manner, periods of irradiation of 4 hours being alternated by periods of 20 hours without irradiation.

[3] = subcutaneous strand with 40 wt % ibuprofen, as a consequence of 15 minutes irradiation at 750 mW

concentration at 1 day ([1]; subcutaneous poly(L,DL-Lactide) strand with 40 wt % ibuprofen, before irradiation, LC-MS/MS): < 5 ng/mL
concentration at 1 day [1, 3]: 25 ng/mL
concentration at 2 day [1, 3]: 19 ng/mL
concentration at 2 day ([1]; subcutaneous strand with 40 wt % ibuprofen, before irradiation, LC-MS/MS): < 5 ng/mL
speed of release of ibuprofen from the disc ([2]; during irradiation (785 nm laser, 750 mW, 4 hours periods)): around 3.9×10^−6 g/h
speed of release of ibuprofen from the disc ([2]; without irradiation (base value)): less than 1×10^−6 g/h
SMILES: CC(C)Cc1ccc(C(C)C(=O)O)cc1 (stereo not shown) [ibuprofen]
release of ibuprofen after stopping irradiation ([2]; after stopping irradiation, same disc): fell virtually immediately to the base value
